Experimental data reported in patent US20100184722A1, “INCLUSION COMPLEXES OF ALPHA-CYCLODEXTRIN AND SILDENAFIL SALT” (Shimoda Biotech (Pty) Ltd, priority 2008, published 2010).
Structures can show the parent of a compound that is named as a salt.

What was measured:
Type in all cases: physicochemical
[1] = Solubility of sildenafil base in ddH2O with cyclodextrins (24 h shaking, HPLC); settings: ACD 0-100 mg/ml, GCD 0-200 mg/ml, HPBCD 0-200 mg/ml, BCD 0-15 mg/ml
Procedure: These samples were shaken for 24 hours at 200 rpm. Excess sildenafil citrate was present in each of the vials for the duration of the solubility study. Following the shaking, the vial contents were filtered through 0.45 μm filters to remove any excess solute. The remaining solution was assayed by HPLC for sildenafil base content. […] This is in agreement with the findings of Omani, et al. (2006).

[2] = pH dependence of sildenafil citrate solubility in phosphate-citrate buffer with or without cyclodextrin; settings: phosphate-citrate buffer (0.1M), pH 3.0-8.0
Procedure: Phosphate-citrate buffer (0.1M) solutions are prepared with pH's of 3.0; 4.0, 5.0; 6.0; 7.0 and 8.0 in ddH2O (de-oxygenated water by purging with nitrogen gas). […] The maximal aqueous solubility for sildenafil citrate appears to occur at pH 5.

[3] = Solubility of sildenafil citrate in ddH2O with cyclodextrins (24 h shaking, HPLC); settings: ACD 0-100 mg/ml, GCD 0-200 mg/ml, HPBCD 0-200 mg/ml, BCD 0-15 mg/ml
Procedure: Solutions were prepared by adding 50 mg of sildenafil citrate to ddH2O samples with varying quantities of the different cyclodextrins. FIG. 1B depicts solubility data of sildenafil citrate complexed with beta-cyclodextrin (BCD) at 0-15 mg/ml These samples were shaken for 24 hours at 200 rpm. Excess sildenafil citrate was present in each of the vials for the duration of the solubility study. Following the shaking, the vial contents were filtered through 0.45 μm filters to remove any excess solute. The remaining solution was assayed by HPLC for sildenafil citrate content.

| aqueous solubility of sildenafil base in the presence of cyclodextrins vs no cyclodextrin [1] | pH of maximal aqueous solubility [2] | aqueous solubility of sildenafil citrate in the presence of cyclodextrins vs no cyclodextrin [3] | Compound |
| --- | --- | --- | --- |
| improved solubility |  |  | CCCc1nn(C)c2c(=O)[nH]c(-c3cc(S(=O)(=O)N4CCN(C)CC4)ccc3OCC)nc12 [sildenafil base, 5-[2-ethoxy-5-(4-methylpiperazin-1-yl)sulfonylphenyl]-1-methyl-3-propyl-4H-pyrazolo[5,4-e]pyrimidin-7-one] |
|  | 5 | improved solubility | CCCc1nn(C)c2c(=O)[nH]c(-c3cc(S(=O)(=O)N4CCN(C)CC4)ccc3OCC)nc12 [sildenafil citrate, 1-[[3-(6,7-dihydro-1-methyl-7-oxo-3-propyl-1H15-pyrazolo[4,3-d]pyrimidin-5-yl)-4-ethoxyphenyl]sulfonyl]-4-methylpiperazine citrate] |
